This passage reports Activity results from ChEMBL document CHEMBL6177948, “Discovery of potential Leonurine-based therapeutic lead MJ210 attenuates Parkinson's disease pathogenesis via NF-κB and MAPK pathways: Mechanistic insights from in vitro and in vivo rotenone models” (Eur J Med Chem, 2025).

For the assay, the system named is SH-SY5Y. The assay can be described thus: Neuroprotective activity against rotenone-induced cytotoxicity in human SH-SY5Y cells assessed as increase in cell viability at 1 to 20 uM incubated for 24 hrs by MTT assay relative to control. In kind it is functional. The conditions noted are these: dose 1-20 µM.

Each structure is given as a SMILES string. Bounds are passed on as bounds.

Turning to `COc1cc(CCC(=O)Nc2nc3ccccc3s2)cc(OC)c1OC(=O)C1CCCN1C(=O)OC(C)(C)C` (stereo unspecified), the Activity is reported as greater than 80%.

Regarding `COc1cc(CCC(=O)NCc2ccc3c(c2)OCO3)cc(OC)c1OC(=O)c1ccccn1`, the Activity is reported as greater than 80%.

Regarding `COc1cc(/C=C/C(=O)N2CCCCC2)cc(OC)c1OC(=O)c1ccccn1`, the Activity is listed as greater than 80%.

`COc1ccc(N2CCN(C(=O)CCc3cc(OC)c(OC(=O)c4ccccn4)c(OC)c3)CC2)cc1`: the Activity is on record as greater than 80%.

`COc1cc(CCC(=O)N2CCCCC2)cc(OC)c1OC(=O)C1CCCN1C(=O)OC(C)(C)C` (stereo unspecified): the Activity is listed as greater than 80%.

Turning to `COc1cc(CCC(=O)N2CCN(c3ccccc3)CC2)cc(OC)c1OC(=O)c1ccccn1`, the Activity is on record as greater than 80%.
